Data as given in patent publication US20110224242A1, “STYRLYQUINOLINES, THEIR PROCESS OF PREPARATION AND THEIR THERAPEUTIC USES” (BIOALLIANCE PHARMA, priority 2008, published 2011).
pEC50, pIC50: −log10 of the molar value. Where two headings read alike, the source gives them in different places.

Key:
[1] = Chemical stability at pH between 1 and 7; format: physicochemical
[2] = Stability in Hepes buffer 0.5 M pH 7.5 (UV spectrophotometry); format: physicochemical; details: HEPES 0.5 M pH 7.5, 37°, 50 μM (SQE94 and 79 at 25 μM)
Protocol: 2.1. Hepes Buffer 0.5M, pH 7.5. 16 μl of drug at 25 mM, in 8 ml of Hepes Buffer. Different time points were done, Oh, 2 h, 4 h, 24 h, and 48 h.
Stability of the compounds was performed in HEPES Buffer 0.5 M (pH 7.5) at 37 O, at a concentration of 50 μM. Compounds SQE94 and 79 were tested at a concentration of 25 μM to avoid parasite precipitation phenomena. Typically, stock solutions of compounds in DMSO (25 mM) were diluted in HEPES Buffer. Dilutions were stored at 37° C., protected from light. Sampling was done at different time points. Samples were analyzed on an UV-spectrophotometer using a wavelength scan between 200 and 700 nm. Superposition of UV-spectra gives the qualitative aspect of the stability of the drug. Based on the Beer-Lambert law, percentage of degradation of the drug over time was calculated, when placed at the maximum absorption wavelength.

[3] = tested on: wild type HIV-1 virus (NL 4.3 strains); experiment: Antiviral activity assay on Hela P4 cells (beta-galactosidase, CPRG); format: cell-based; details: read-out: P4 IC50
Protocol: The antiviral activity is determined by infecting HelaP4 cells with a wild type HIV-1 virus (NL 4.3 strains at 3 ng) on cells in presence or absence of drugs. A serial dilution of drugs is done to evaluate the EC50. The effective concentration is the concentration of product at which virus replication is inhibited by 50 percent. After 48 hours incubation, the quantification is done by the evaluation of β-Galactosidase produced by the infected Hela P4 cells. The viral activity is evaluated by colorimethc assay, CPRG, followed by plate reading at 570 nm with a reference of 690 nm. The CPRG test is a colorimetric assay which allows to quantity the β-galactosidase produced by HIV-1 infected indicator cells (the β-Gal gene being under the control of the HIV-1 LTR).

HBX2 HIV integrase [4] = target: T1, HBX2 HIV integrase (Human immunodeficiency virus type 1 group M subtype B, UniProt P04585); experiment: Strand transfer assay; format: biochemical
T1 construct: contains the cDNA encoding the HBX2 HIV integrase; His tag (N, cleaved yes); made in house; host or cells: Escherichia coli BL21 (DE3)
Protocol: The pET-15b-IN plasmid contains the cDNA encoding the HBX2 HIV integrase. His-tagged integrase protein was overexpressed in Escherichia coli BL21 (DE3) and purified under native conditions. Briefly, at an OD of 0.8, fusion protein expression was induced in bacterial cultures by the addition of IPTG (1 mM). Cultures were incubated for 3 h at 37° C., of ter which cells were centrifuged. The cell pellet was resuspended in ice-cold buffer A [20 mM Ths-HCl (pH 8), 1 M NaCl, 4 mM β-mercaptoethanol, and 5 mM imidazole], treated with lysozyme for 1 h on ice, and sonicated. After centrifugation (30 min at 10 000 rpm), the supernatant was filtered (0.45 μm) and incubated for at least 2 h with Ni-NTA agarose beads (Pharmacia). The beads were washed twice with 10 volumes of buffer A, 10 volumes of buffer A with 50 mM imidazole, and 10 volumes of buffer A with 100 mM imidazole. His-tagged integrase was then eluted with buffer A supplemented with 50 μM ZnSO4 and 1 M imidazole. […]
Processing, strand transfer reactions were performed using U5A-U5B-2, in buffer containing 20 mM Tris (pH 7.2), 50 mM NaCl, 10 mM DTT, 1 OmM MgCl2. […] Gels were analyzed using a STORM Molecular Dynamics phosphorimager and quantified with Image Quant™ 4.1 software.

in vitro = format: cell-based; details: human
Protocol: The cytotoxicity of compounds was evaluated using un-infected and infected Hel_a-P4 cell and CEM leukemia cells. CEM cell were obtained from the American Type Tissue Collection (Rockville, Md.).
A serial dilution of drugs is done to evaluate the cytotoxicity concentration and is identified by CC50 (concentration of drug which induces 50% of cytotoxicity)
The HeLa-P4 was cultured in the presence or absence of compounds for 2 days. After this time period, cells were cultivated with MTT for 3 hours, further the medium is removed. And the lysis buffer is incubated for 1 hour, followed by plate reading at 540 nm in a microplate reader.

[5] = tested on: wild type HIV-1 virus (NL 4.3 strains); experiment: Antiviral activity assay CEM cells (p24 ELISA); format: cell-based; details: Human immunodeficiency virus 1, CCRF-CEM, read-out: CEM
Protocol: The activity is determined by infecting CEM cells with a wild type HIV-1 virus (NL 4.3 strains at 3 ng) on cells in presence or absence of drugs. A serial dilution of drugs is done to evaluate the EC50. […] After 48 hours incubation, the quantification is done by the evaluation of the viral protein p24 with a commercial Elisa Kit. P24 is a protein essential to the replication virus cycle. The quantification of this enzyme is proportional to the amount of virus produced by the infected cells.

HBX2 HIV integrase [6] = target: T1, HBX2 HIV integrase; experiment: 3' LTR processing assay; format: biochemical
Protocol: The pET-15b-IN plasmid contains the cDNA encoding the HBX2 HIV integrase. His-tagged integrase protein was overexpressed in Escherichia coli BL21 (DE3) and purified under native conditions. Briefly, at an OD of 0.8, fusion protein expression was induced in bacterial cultures by the addition of IPTG (1 mM). Cultures were incubated for 3 h at 37° C., of ter which cells were centrifuged. The cell pellet was resuspended in ice-cold buffer A [20 mM Ths-HCl (pH 8), 1 M NaCl, 4 mM β-mercaptoethanol, and 5 mM imidazole], treated with lysozyme for 1 h on ice, and sonicated. After centrifugation (30 min at 10 000 rpm), the supernatant was filtered (0.45 μm) and incubated for at least 2 h with Ni-NTA agarose beads (Pharmacia). The beads were washed twice with 10 volumes of buffer A, 10 volumes of buffer A with 50 mM imidazole, and 10 volumes of buffer A with 100 mM imidazole. His-tagged integrase was then eluted with buffer A supplemented with 50 μM ZnSO4 and 1 M imidazole. The integrase concentration was adjusted to 0.1 mg/mL in buffer A. The fusion protein was cleaved using thrombin and dialyzed overnight against 20 mM Ths-HCl (pH 8), 1 M NaCl, and 4 mM (3-mercaptoethanol. After removal of biotinylated thrombin by incubation with streptavidin-agarose magnetic beads (Novagen, Madison, Wis.), a second dialysis was performed for 2 h against 20 mM Ths-HCl (pH 8), 1 M NaCl, 4 mM mercaptoethanol, and 20% (v/v) ethylene glycol. Fractions were aliquoted and rapidly frozen at −80° C.
Oligonucleotides U5B (5′-[…]-3′), U5B-2 (5′-GTGTGGAAAATCTCTAGCA-3′), U5A (5′-[…]-3′) were purchased from Eurogentec (Liege, Belgium) and further purified on an 18% denaturing acrylamide/urea gel. For processing, strand transfer, 100 pmol of U5B, U5B-2, respectively, were radiolabeled using T4 polynucleotide kinase and 50 μCi of [γ-32P]ATP (3000 Ci/mmol). The T4 kinase was heat inactivated, and unincorporated nucleotides were removed using a Sephadex G-10 column (GE Healthcare). NaCl was added to a final concentration of 0.1 M, and complementary unlabeled strand USA was added to either U5B or U5B-2. The mixture was heated to 90° C. for 3 min, and the DNA was annealed by slow cooling.
Processing reaction was performed using U5A-U5B, in buffer containing 20 mM Tris (pH 7.2), 50 mM NaCl, 10 mM DTT, and 10 mM MgCl2. […] The reactions were stopped by phenol/chloroform extraction, and DNA products were precipitated with ethanol. The products were separated in TE containing 7 M urea and electrophoresed on an 18% denaturing acrylamide/urea gel. Gels were analyzed using a STORM Molecular Dynamics phosphorimager and quantified with Image Quant™ 4.1 software.

[7] = Stability by HPLC in PEG400 and Vitamine E-TPGS/PEG 400 mixtures; format: physicochemical
Protocol: The second stability assay consists in the assessment according to standard HPLC analysis protocols over 24 hrs in PEG400 and Vitamine E-TPGS/PEG 400 mixtures, by focusing on the evolution of the concentration and peak purity of the compound. Compounds were dissolved in appropriate amounts of solvent and let under stirring protected from light for 24 hrs. Aliquots were transferred into eppendorfs and centrifuged at 10 000 g for 10 min. Supernatants were collected and appropriately diluted in DMSO/mobile phase mixtures before HPLC analysis. The Waters HPLC analysis system equipped with an ultraviolet detector and a Waters Symmetry Shield C18 column of 2.1 mm×50 mm ([…]) was used. A mobile phase of water/acetic acid 0.1% (Solvant A): Acetonitrile/acetic acid 0.1% (solvent B) mixture or a water/trifluoroacetic acid 0.1% (Solvant A): Acetonitrile/trifluoroacetic acid 0.1% (solvent B) mixture in the case of compound FZ41 was pumped according to a binary gradient described below, at a flow rate of 0.4 ml/min.

[8] = Solubility of compound SQE94 in pH-buffers; format: physicochemical; details: compound alone, room temperature, 24 h
Protocol: Solubility of compound SQE94 was determined in pH-buffers at pH values of 5, 6 and 7. 10 mg of SQE94 are added to 10 ml of each pH-buffer. Each solution is stirred at room temperature, away from light, for 24 h, then centrifugated. The amount of dissolved compound is determined by HPLC analysis.

[9] = Human immunodeficiency virus 1, HeLaP4, HeLa P4 cells, HIV-1 NL 4.3, 48 hours
[10] = CEM cells, HIV-1 NL 4.3, 48 hours, p24
[11] = Human immunodeficiency virus 1, HeLaP4, 48 h

Row | SMILES | degradation rate ([1]; within less than 24 hrs, pH between 1 and 7) | % of degradation ([2]; 2 hrs) [%] | % of degradation ([2]; 4 hrs) [%] | % of degradation ([2]; 24 hrs) [%] | pIC50 [3, 9] | pIC50 (HBX2 HIV integrase [4]) | IC50 at 2 days (in vitro) [nM] | pEC50 [5, 10] | pIC50 (HBX2 HIV integrase [6]) | degradation ([7]; within only 3 hrs, mixtures of excipients) | melting point [°C] | pIC50 [3, 11] | pEC50 ([5]; 48 h) | chemical profile stability ([1]; over 24 hrs at pH between 1 and 7) | Dissolved compound SQE94 ([8]; pH5 buffer) [µg/mL] | Dissolved compound SQE94 ([8]; pH6 buffer) [µg/mL] | Dissolved compound SQE94 ([8]; pH7 buffer) [µg/mL] | degradation ([7]; over 24 hrs at room temperature in several mixtures of excipients)
1 | COc1cc(/C=C/c2ccc3ccc(C(=O)O)c(O)c3n2)cc(O)c1O [FZ41, reference compound] | 50-60% | 31.1 | 59.6 | 64.6 | 5.30 | 5.77 | > 100000 | 4.60 | 6.15 | at least 10% | – | – | – | – | – | – | – | –
2 | CC(=O)c1ccc(O)c2nc(/C=C/c3cc(O)c(O)cc3O)ccc12 [SQE74, 1-{2-[2(E)-(2,4,5-thhydroxyphenyl)-vinyl]-8-hydroxy-quinolin-5-yl}-ethanone] | – | 17.2 | 26.1 | 24.1 | 4.93 | – | 11700 | 6.46 | 6.65 | – | – | – | – | – | – | – | – | –
3 | CC(=O)c1ccc(O)c2nc(/C=C/c3cc(O)c(O)c(O)c3)ccc12 [SQE75, 1-{2-[2(E)-(3,4,5-thhydroxyphenyl)-vinyl]-8-hydroxy-quinolin-5-yl}-ethanone] | – | 15.7 | 17.5 | 18.7 | 5.02 | – | > 100000 | 4.61 | 6.29 | – | – | – | – | – | – | – | – | –
4 | CC(=O)c1ccc(O)c2nc(/C=C/c3cc(O)c(O)c([N+](=O)[O-])c3)ccc12 [SQE79, 1-{2-[2(E)-(3,4-dihydroxy, 5-nitrophenyl)-vinyl]-8-hydroxy-quinolin-5-yl}-ethanone] | – | 19.2 | 26.9 | 42.9 | 5.34 | – | 4200 | 6.40 | 6.65 | – | – | – | – | – | – | – | – | –
5 | CC(=O)c1ccc(O)c2nc(/C=C/c3cc(O)c(O)c(Cl)c3)ccc12 [SQE86, (E)-1-(2-(3-chloro-4,5-dihydroxystyryl)-8-hydroxyquinolin-5-yl)ethanone] | – | 12.1 | 12.5 | 22.4 | – | – | 15000 | – | 6.28 | – | 256 to 258 | 6.00 | 6.30 | – | – | – | – | –
6 | CC(=O)c1ccc(O)c2nc(/C=C/c3ccc(O)c(C(=O)O)c3)ccc12 [SQE89, (E)-5-(2-(5-acetyl-8-hydroxyquinolin-2-yl)vinyl)-2-hydroxybenzoic acid] | – | <5 | <5 | <5 | – | – | 12600 | – | 6.25 | – | 266 to 268 | 6.00 | – | – | – | – | – | –
7 | COc1cc(/C=C/c2ccc3c(C(C)=O)ccc(O)c3n2)cc([N+](=O)[O-])c1O [SQE94, 1-{2-[2(E)-(3-nitro, 4-hydroxy, 5-methoxyphenyl)-vinyl]-8-hydroxy-quinolin-5-yl}-ethanone] | – | <5 | 8.2 | 30.8 | 5.80 | – | 56000 | – | 6.14 | – | – | – | – | very stable chemical profiles | 1.4 | 1.4 | 5.5 | less than 10%
8 | CC(=O)c1ccc(O)c2nc(/C=C/c3ccc(C(=O)O)cc3[N+](=O)[O-])ccc12 [SQE96, 4-[2(E)-(5-Acetyl-8-hydroxy-quinolin-2-yl)-vinyl]-5-nitro-benzoic acid] | – | <5 | <5 | <5 | 4.40 | – | > 100000 | – | 5.64 | – | – | – | – | – | – | – | – | –
